The structures appear in SMILES notation. Where a SMILES comes first, the peptide text is derived from it. [ ]: non-standard residue; d: D form. The star is where a group is joined. NHCH2CH2OH = OCCN*; For = O=C*

Series [1] in a line: H+/Na+ transport assay of bead-derived peptides (one-point).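 Also: relative to parent gramicidin A activity set to 1.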 In kind it is biochemical. Also on record: key: relative activity; mean of two control wells = 1.00. The settings on record: bead-derived peptide solution, EYPC/EYPG LUVs. The method, then: (§1) Each type of assay must be simplified and miniaturized to assess the activities of the library peptides in a 96-well format for the high-throughput screening.
H+/Na+ transport assay of bead-derived peptides.1,2,3 Trisodium 8-hydroxypyrene-1,3,6-trisulfonate
mini-extruder apparatus (Avanti Polar Lipids).
28.9 µmol) in CHCl3 (225 µL) and egg yolk phosphatidylglycerol (1.20 mg, 1.56 µmol) in CHCl3 (60.0 µL)
The thin film was hydrated and
1.0 mM pyranine) by sonication.
A suspension of the LUVs was immediately
used for the H+/Na+ transport assay.
The diluted solution of peptide
flat-bottom 96-well plate (655086, Greiner bio-one).
was vortexed at room temperature for 30 min.
(5/95, 3.0 µL) and the LUV suspension were mixed in each plate to determine 100% lysis. The untreated
LUV suspension was used to determine 0% lysis.
normalized against 100% lysis by Triton X-100 (Imax) and 0% lysis (I0) as following, where Ix is the
fluorescence intensity (Supplementary Equation 2).
I = 100 × (Ix – I0) / (Imax – I0) (2)
The mean value of the two control wells was set to 1.00. […]

Series [2] deals with P388 mouse leukemia cells. The settings on record: 92 h. An excerpt: Each type of assay must be simplified and miniaturized to assess the activities of the library peptides in a 96-well format for the high-throughput screening. […]
Mammalian cytotoxicity assay of bead-derived peptides . P388 cells were obtained from Institute of
Development Aging and Cancer (Tohoku University). The cells were maintained with growth medium
[RPMI1640 with phenol red ( Fujifilm Wako Pure Chemical) supplemented with 10% heat -inactivated fetal
bovine serum, pe nicillin G (100 units/mL), and streptomycin (100 µg/mL)] under atmosphere of 5% CO 2 at
The collected cells were resuspended into
the growth medium at 2 × 10^4 cells/mL. The stock solutions of the peptide library were 250-fold diluted
with the growth medium. Aliquots of the medium (100 µL) containing peptides and the latter medium
containing P388 cells (100 µL) were mixed in a 96-well cell culture plate (TR5003, TrueLine). The final
concentration of P388 cells was 1 × 10^4 cells/mL. After incubation under atmosphere of 5% CO2 at 37 °C
for 92 h, the numbers of viable cells were determined by
2-(4-iodophenyl)-3-(4-nitrophenyl)-5-(2,4-disulfophenyl)-2H-tetrazolium, monosodium salt (WST-1) assay.
A solution of 1-methoxy-5-methylphenazinium methyl sulfate (1-methoxy PMS) and WST-1 in the growth
medium (1-methoxy PMS 0.70 mg/mL in Milli-Q/WST-1 3.6 mg/mL in pH 7.4 HEPES buffer = 1/9) was
added to each well of the plate (10.0 µL/well). The plate was incubated for 4 h under atmosphere of 5% CO2
at 37 °C. The absorbance of each well at 415 nm was measured using a Benchmark microplate reader
(Bio-Rad). The cytotoxicities were evaluated as cell viability (%). […]

Series [3] has as its system Streptococcus pyogenes SSI-9. The series can be described thus: Antibacterial activity assay of bead-derived peptides (three concentrations). The class given is cell-based. The following applies: S. pyogenes, bead-derived peptide solution, three concentrations. Also on record: key: +++: inhibition by the 640-fold diluted peptide solution; ++: inhibition by the 160-fold diluted solution; +: inhibition by the 40-fold diluted solution; -: no inhibition. As to the method: as §1
Next, the peptides in groups A and B were subjected to the antibacterial assay and structural determination. Three peptide concentrations were applied to evaluate the growth inhibition of S. pyogenes and determine the antibacterial activity. […] Finally, the structures of the peptides were determined. […]
Antibacterial activity assay of bead-derived peptides. The stock solution of the peptide library was 4- and […]
16-fold diluted with DMSO. The non-diluted stock solution, 4-fold diluted solution, and 16-fold diluted […]
solution were transferred to the 96-well round-bottom plate (3367, Corning, 1.0 µL/well). To the solution of […]
peptide in each well was added a suspension of Streptococcus pyogenes SSI-9 strain in cation adjusted […]
Mueller Hinton Broth [40.0 µL, 2 × 10^5 colony forming units (CFU), 21 g/L Mueller Hinton Broth (Difco), 50 […]
mg/L Ca2+ (adjusted with CaCl2•2H2O), and 25 mg/L Mg2+ (adjusted with MgCl2•6H2O)] supplemented with […]
5% laked horse blood (Nippon Biotest Laboratories). The plate was incubated at 37 °C for 18 h, and the precipitation of the grown cells was examined. […]

Turning to `CC(C)C[C@@H](NC(=O)[C@H](C)NC(=O)CNC(=O)[C@@H](NC=O)C(C)C)C(=O)N[C@@H](C)C(=O)N[C@@H](C(=O)N[C@H](C(=O)N[C@@H](C(=O)N[C@@H](Cc1c[nH]c2ccccc12)C(=O)N[C@@H](C(=O)N[C@@H](Cc1c[nH]c2ccccc12)C(=O)N[C@@H](C(=O)N[C@@H](Cc1c[nH]c2ccccc12)C(=O)N[C@@H](C(=O)N[C@@H](Cc1c[nH]c2ccccc12)C(=O)NCCO)C(C)C)C(C)C)C(C)C)C(C)C)C(C)C)C(C)C` [compound 12092] (For-VGA[dL]A[dV]V[dV]W[dV]W[dV]W[dV]W-NHCH2CH2OH), in series [1], the “H+/Na+ transport activity normalized against the value of 1 (1.00)” value (from here on “H+/Na+ transport activity normalized”) was 1.14. The molecule further yielded a cell viability/% in series [2] of 100.0%. Besides, in series [3], the antibacterial activity result was “+”.

Consider `CNC(=O)C[C@@H](NC(=O)[C@H](Cc1c[nH]c2ccccc12)NC(=O)[C@H](NC(=O)[C@@H](NC(=O)[C@@H](CC(C)C)NC(=O)[C@H](C)NC(=O)[C@@H](CC(C)C)NC(=O)[C@H](C)NC(=O)CNC(=O)[C@@H](NC=O)C(C)C)C(C)C)C(C)C)C(=O)N[C@@H](Cc1c[nH]c2ccccc12)C(=O)N[C@H](CC(C)C)C(=O)N[C@@H](Cc1c[nH]c2ccccc12)C(=O)N[C@@H](C(=O)N[C@@H](Cc1c[nH]c2ccccc12)C(=O)NCCO)C(C)C` [compound 5091] (For-VGA[dL]A[dL]V[dV]W[dD](NHMe)W[dL]W[dV]W-NHCH2CH2OH), for which, in series [1], the “H+/Na+ transport activity normalized” value came to 1.05. For the same molecule, the cell viability/% in series [2] was 100.0%. For the same molecule, the antibacterial activity result in series [3] is “+”.

As to `CC(C)C[C@@H](NC(=O)[C@H](Cc1c[nH]c2ccccc12)NC(=O)[C@H](NC(=O)[C@H](Cc1c[nH]c2ccccc12)NC(=O)[C@H](NC(=O)[C@H](Cc1c[nH]c2ccccc12)NC(=O)[C@@H](CC(C)C)NC(=O)[C@@H](NC(=O)[C@H](NC(=O)[C@H](C)NC(=O)[C@H](NC(=O)[C@H](C)NC(=O)CNC(=O)[C@@H](NC=O)C(C)C)C(C)C)C(C)C)C(C)C)C(C)C)C(C)C)C(=O)N[C@@H](Cc1c[nH]c2ccccc12)C(=O)NCCO` [compound 448] (For-VGA[dV]A[dV]V[dL]W[dV]W[dV]W[dL]W-NHCH2CH2OH), the “H+/Na+ transport activity normalized” value in series [1] turned out to be 1.07. Moreover, the cell viability/% in series [2] came to 34.1%. For the same molecule, the antibacterial activity entry in series [3] is listed as “+”.

Consider `CC(C)C[C@@H](NC(=O)[C@H](C)NC(=O)[C@H](NC(=O)[C@H](C)NC(=O)CNC(=O)[C@@H](NC=O)C(C)C)C(C)C)C(=O)N[C@H](C(=O)N[C@H](CC(C)C)C(=O)N[C@@H](Cc1c[nH]c2ccccc12)C(=O)N[C@H](CC(C)C)C(=O)N[C@@H](Cc1c[nH]c2ccccc12)C(=O)N[C@H](CC(C)C)C(=O)N[C@@H](Cc1c[nH]c2ccccc12)C(=O)N[C@H](CC(C)C)C(=O)N[C@@H](Cc1c[nH]c2ccccc12)C(=O)NCCO)C(C)C` [compound 1343] (For-VGA[dV]A[dL]V[dL]W[dL]W[dL]W[dL]W-NHCH2CH2OH), for which, in series [1], the “H+/Na+ transport activity normalized” value came to 1.02. Besides, the cell viability/% in series [2] stood at 4.0%. Moreover, the antibacterial activity entry in series [3] is “-”.

Turning to `CC(C)C[C@@H](NC(=O)[C@H](C)NC(=O)CNC(=O)[C@@H](NC=O)C(C)C)C(=O)N[C@@H](C)C(=O)N[C@@H](C(=O)N[C@H](C(=O)N[C@@H](C(=O)N[C@@H](Cc1c[nH]c2ccccc12)C(=O)N[C@@H](C(=O)N[C@@H](Cc1c[nH]c2ccccc12)C(=O)N[C@@H](C(=O)N[C@@H](Cc1c[nH]c2ccccc12)C(=O)N[C@H](CC(C)C)C(=O)N[C@@H](Cc1c[nH]c2ccccc12)C(=O)NCCO)C(C)C)C(C)C)[C@H](C)O)C(C)C)C(C)C` [compound 4493] (For-VGA[dL]A[dV]V[dT]W[dV]W[dV]W[dL]W-NHCH2CH2OH), the “H+/Na+ transport activity normalized” value in series [1] is 1.19. The cell viability/% in series [2] worked out at 100.0%. Also, the antibacterial activity entry in series [3] is reported as “-”.

Regarding `CC(C)C[C@@H](NC(=O)[C@H](Cc1c[nH]c2ccccc12)NC(=O)[C@H](NC(=O)[C@@H](NC(=O)[C@H](NC(=O)[C@H](C)NC(=O)[C@H](NC(=O)[C@H](C)NC(=O)CNC(=O)[C@@H](NC=O)C(C)C)[C@H](C)O)C(C)C)C(C)C)C(C)C)C(=O)N[C@@H](Cc1c[nH]c2ccccc12)C(=O)N[C@@H](C(=O)N[C@@H](Cc1c[nH]c2ccccc12)C(=O)N[C@@H](C(=O)N[C@@H](Cc1c[nH]c2ccccc12)C(=O)NCCO)C(C)C)C(C)C` [compound 12298] (For-VGA[dT]A[dV]V[dV]W[dL]W[dV]W[dV]W-NHCH2CH2OH), the “H+/Na+ transport activity normalized” value in series [1] was 1.04. The same molecule displayed a cell viability/% in series [2] of 100.0%. Further, the antibacterial activity entry in series [3] is recorded as “-”.

Turning to `CC(C)C[C@@H](NC(=O)[C@H](C)NC(=O)[C@H](NC(=O)[C@H](C)NC(=O)CNC(=O)[C@@H](NC=O)C(C)C)[C@H](C)O)C(=O)N[C@H](C(=O)N[C@H](CC(C)C)C(=O)N[C@@H](Cc1c[nH]c2ccccc12)C(=O)N[C@H](CC(C)C)C(=O)N[C@@H](Cc1c[nH]c2ccccc12)C(=O)N[C@H](CC(C)C)C(=O)N[C@@H](Cc1c[nH]c2ccccc12)C(=O)N[C@H](CC(C)C)C(=O)N[C@@H](Cc1c[nH]c2ccccc12)C(=O)NCCO)C(C)C` [compound 7905] (For-VGA[dT]A[dL]V[dL]W[dL]W[dL]W[dL]W-NHCH2CH2OH), the “H+/Na+ transport activity normalized” value in series [1] turned out to be 1.10. The same molecule gave a cell viability/% in series [2] of 100.0%. For the same molecule, the antibacterial activity entry in series [3] is “-”.

Take `CC(C)C[C@@H](NC(=O)[C@H](C)NC(=O)[C@H](NC(=O)[C@H](C)NC(=O)CNC(=O)[C@@H](NC=O)C(C)C)C(C)C)C(=O)N[C@H](C(=O)N[C@@H](C(=O)N[C@@H](Cc1c[nH]c2ccccc12)C(=O)N[C@@H](C(=O)N[C@@H](Cc1c[nH]c2ccccc12)C(=O)N[C@H](CC(C)C)C(=O)N[C@@H](Cc1c[nH]c2ccccc12)C(=O)N[C@@H](C(=O)N[C@@H](Cc1c[nH]c2ccccc12)C(=O)NCCO)C(C)C)C(C)C)[C@H](C)O)C(C)C` [compound 4710] (For-VGA[dV]A[dL]V[dT]W[dV]W[dL]W[dV]W-NHCH2CH2OH): in series [1], the “H+/Na+ transport activity normalized” value turned out to be 1.06. Besides, in series [2], the cell viability/% was 100.0%. For the same molecule, the antibacterial activity result in series [3] is “-”.

With `CC(C)C[C@@H](NC(=O)[C@H](C)NC(=O)[C@H](NC(=O)[C@H](C)NC(=O)CNC(=O)[C@@H](NC=O)C(C)C)[C@H](C)O)C(=O)N[C@H](C(=O)N[C@H](CC(C)C)C(=O)N[C@@H](Cc1c[nH]c2ccccc12)C(=O)N[C@@H](C(=O)N[C@@H](Cc1c[nH]c2ccccc12)C(=O)N[C@@H](C(=O)N[C@@H](Cc1c[nH]c2ccccc12)C(=O)N[C@H](CC(C)C)C(=O)N[C@@H](Cc1c[nH]c2ccccc12)C(=O)NCCO)C(C)C)C(C)C)C(C)C` [compound 9145] (For-VGA[dT]A[dL]V[dL]W[dV]W[dV]W[dL]W-NHCH2CH2OH), the “H+/Na+ transport activity normalized” value in series [1] worked out at 1.03. This molecule came in with a cell viability/% in series [2] of 70.9%. Further, the antibacterial activity result in series [3] is given as “-”.
